The source of these data is article PMC9241686 (Microbiology Spectrum, 2022).

The structures appear in SMILES notation. Where two headings read alike, the source gives them in different places.

Experiment [1] has as its system replicating M. tuberculosis. Kind of experiment: Kill kinetics against replicating M. tuberculosis. Particulars: up to 100 μM, over 21 days, aerobic culture in 7H9-Tw-OADC. Type of experiment: cell-based, Mycobacterium tuberculosis.
Experiment [2] relates to intracellular M. tuberculosis. Kind of experiment: microbe, parasite or virus in culture. It counts as cell-based, Mycobacterium tuberculosis.
The subject of experiment [3] is extracellular M. tuberculosis. Nature of the experiment: microbe, parasite or virus in culture. Particulars: Mycobacterium tuberculosis. It counts as cell-based.
Experiment [4] deals with extracellular M. tuberculosis. Nature of the experiment: microbe, parasite or virus in culture. It counts as cell-based, Mycobacterium tuberculosis.
A further experiment deals with HepG2 cells. Kind of experiment: cells. It counts as cell-based, human. Particulars: Homo sapiens, HepG2; 72 h, CellTiter-Glo.
The subject of the next experiment is macrophages (RAW 264.7). Nature of the experiment: cells. It counts as cell-based, murine. Particulars: Mus musculus, RAW264.7; RAW 264.7 infected macrophages, high-content assay, 72 h; read-out: Macrophage IC50.

In the case of `CCOc1ccc(NC(=S)Nc2ccc(OC)cc2)cc1` [Compound 14], in experiment [1], the “culture viability (CFU) in kill kinetics” value is “small decrease in viable bacteria at day 21 at the highest concentration”. Besides, the “selectivity index (SI)” value in experiment [2] (cytotoxicity IC50 over intracellular M. tuberculosis IC50) was more than 588. In addition, the “fold difference between extracellular and intracellular IC50” value in experiment [2] (extracellular versus intracellular M. tuberculosis) is more than 40 fold. Also, the IC50 in experiment [3] (120 h, read-out: Extracellular TB IC50) was 7.2 µM; in experiment [3] (glucose as carbon source, read-out: Glucose IC50), 7.2 µM; in experiment [4] (Mycobacterium tuberculosis, 168 h, read-out: Cholesterol IC50), 15 µM; in the experiment on HepG2 cells it was more than 100 µM; in the experiment with macrophages (RAW 264.7), more than 100 µM. The Fold-change in experiment [4] (glucose IC50 versus cholesterol IC50) came to 0.5.
